This note sets out measurements from ChEMBL document CHEMBL4145512, “Design, synthesis and biological evaluation of new coumarin-dithiocarbamate hybrids as multifunctional agents for the treatment of Alzheimer's disease” (Eur J Med Chem, 2018).

As usually defined, the inhibition is the relative decrease from the control value, in per cent. As usually defined, the IC50 is the concentration that inhibits the measured activity by half. A lower IC50 goes with greater potency in that assay. In general, Ki refers to the equilibrium dissociation constant of an inhibitor or competing ligand from its target. In general, Papp refers to the rate of passage across a membrane or cell layer, normalised by area and donor concentration. The low end stands for poor permeation, the high end for ready permeation.

Calls of active or inactive are those of the source. The rule behind the calls is not given here.

Series [1] concerns the target T1, Acetylcholinesterase (Homo sapiens, UniProt P22303). As to the kind of experiment: Inhibition of human erythrocyte AChE at 10 uM using acetylthiocholine iodide as substrate preincubated for 6 mins followed by substrate addition measured up to 180 secs by Ellman's method relative to control. (In general: DTNB colorimetry detects thiols as they appear.)
The target of series [2] is BuChE (butyrylcholinesterase) (Homo sapiens, UniProt P06276). As to the kind of experiment: Inhibition of human serum BuChE at 10 uM using S-butyrylthiocholine iodide as substrate preincubated for 6 mins followed by substrate addition measured up to 180 secs by Ellman's method relative to control. Particulars: probe S-butyrylthiocholine iodide.
BuChE (butyrylcholinesterase), sequence (P06276 whole entry): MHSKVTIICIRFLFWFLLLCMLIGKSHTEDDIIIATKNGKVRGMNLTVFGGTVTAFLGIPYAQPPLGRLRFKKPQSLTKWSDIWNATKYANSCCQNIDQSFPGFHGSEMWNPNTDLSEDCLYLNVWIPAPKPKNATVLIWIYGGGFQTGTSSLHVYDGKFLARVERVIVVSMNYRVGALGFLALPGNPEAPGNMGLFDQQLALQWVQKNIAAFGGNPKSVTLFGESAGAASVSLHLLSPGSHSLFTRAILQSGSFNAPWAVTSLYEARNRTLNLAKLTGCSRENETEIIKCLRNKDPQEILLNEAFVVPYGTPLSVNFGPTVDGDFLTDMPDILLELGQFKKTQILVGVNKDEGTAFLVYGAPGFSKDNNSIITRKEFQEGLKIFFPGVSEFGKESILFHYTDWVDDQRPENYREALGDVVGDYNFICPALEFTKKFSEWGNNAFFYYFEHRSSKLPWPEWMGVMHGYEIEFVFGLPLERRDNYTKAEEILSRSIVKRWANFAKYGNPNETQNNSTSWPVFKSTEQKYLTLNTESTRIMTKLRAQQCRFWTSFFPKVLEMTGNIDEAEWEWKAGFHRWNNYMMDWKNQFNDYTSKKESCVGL
Series [3] addresses T1, Acetylcholinesterase. As to the kind of experiment: Inhibition of human erythrocyte AChE using acetylthiocholine iodide as substrate preincubated for 6 mins followed by substrate addition measured up to 180 secs by Ellman's method.
For series [4], the target named is T1, Acetylcholinesterase. As to the kind of experiment: Potency index, ratio of donepenzil IC50 to compound IC50 for human erythrocyte AChE.
In series [5] the target is T1, Acetylcholinesterase. As to the kind of experiment: […] inhibition of human erythrocyte AChE using acetylthiocholine iodide as substrate preincubated for 6 mins followed by substrate addition measured up to 180 secs by Lineweaver-Burk plot analysis.
A short description of series [6]: Metal chelating activity assessed as compound-Fe3+ complex formation at 25 uM by UV-Vis spectrophotometry.
A short description of series [7]: Metal chelating activity assessed as association constant for compound-Fe3+ complex formation by Job's plot analysis.
Series [8] can be described thus: Cytotoxicity against human SH-SY5Y cells assessed as cell viability at 12.5 uM after 24 hrs by MTT assay relative to control. The following applies: read-out: Activity. It counts as cell-based.
Series [9] in a line: Cytotoxicity against human SH-SY5Y cells assessed as cell viability at 25 uM after 24 hrs by MTT assay relative to control. It counts as cell-based. Particulars: read-out: Activity.
Series [10] can be described thus: Cytotoxicity against human SH-SY5Y cells assessed as cell viability at 50 uM after 24 hrs by MTT assay relative to control. Type of series: cell-based. Particulars: read-out: Activity. (Tetrazolium dyes change colour on reduction, which living cells bring about.)
The nature of series [11]: Cytotoxicity against human SH-SY5Y cells assessed as cell viability at 100 uM after 24 hrs by MTT assay relative to control. It counts as cell-based. Particulars: read-out: Activity.
Series [12] has as its system Mus musculus. Put plainly: Toxicity in Kunming mouse assessed as change in water consumption at 1000 mg/kg, po observed continuously for the first 4 hrs and intermittently for next 24 hrs and occasionally thereafter for 14 days. It counts as organism-based. Particulars: in vivo.
In series [13] the test system is Mus musculus. As to the kind of experiment: Toxicity in Kunming mouse assessed as change in food consumption at 1000 mg/kg, po observed continuously for the first 4 hrs and intermittently for next 24 hrs and occasionally thereafter for 14 days. Type of series: organism-based. The following applies: in vivo.
The test system of series [14] is Mus musculus. Put plainly: Toxicity in Kunming mouse assessed as reduction in body weight at 1000 mg/kg, po observed continuously for the first 4 hrs and intermittently for next 24 hrs and occasionally thereafter for 14 days. Type of series: organism-based. The following applies: in vivo.
Series [15] deals with Mus musculus. As to the kind of experiment: Toxicity in Kunming mouse assessed as death at 1000 mg/kg, po observed continuously for the first 4 hrs and intermittently for next 24 hrs and occasionally thereafter for 14 days. Type of series: organism-based. The following applies: in vivo.
The test system of series [16] is Mus musculus. Put plainly: Cardiotoxicity in Kunming mouse at 1000 mg/kg, po measured at day 14 by microscopic analysis. The following applies: in vivo. Type of series: toxicity, organism-based.
Series [17] deals with Mus musculus. As to the kind of experiment: Hepatotoxicity in Kunming mouse at 1000 mg/kg, po measured at day 14 by microscopic analysis. Type of series: toxicity, organism-based. Particulars: in vivo.
For series [18], the system named is Mus musculus. Put plainly: Nephrotoxicity in Kunming mouse at 1000 mg/kg, po measured at day 14 by microscopic analysis. It counts as toxicity, organism-based. Particulars: in vivo.
Series [19] concerns Mus musculus. As to the kind of experiment: Antialzheimer activity in scopolamine induced po dosed Kunming mouse cognitive deficit model assessed as reduction in latency treated for 1 hr followed by training trial and subsequent addition of scopolamine at 30 mins post trial measured for 24 hrs interval. It counts as functional, organism-based.
The subject of series [20] is Mus musculus. As to the kind of experiment: Antialzheimer activity in scopolamine induced po dosed Kunming mouse cognitive deficit model assessed as reduction in number of errors treated for 1 hr followed by training trial and subsequent addition of scopolamine at 30 mins post trial measured for 24 hrs interval. It counts as functional, organism-based.
For series [21], the system named is Mus musculus. Put plainly: Antialzheimer activity in scopolamine induced Kunming mouse cognitive deficit model assessed as latency time at 20.6 mg/kg, po treated for 1 hr followed by training trial and subsequent addition of scopolamine at 30 mins post trial measured for 24 hrs interval. It counts as functional.
For series [22], the system named is Mus musculus. As to the kind of experiment: Antialzheimer activity in scopolamine induced Kunming mouse cognitive deficit model assessed as latency time at 10.3 mg/kg, po treated for 1 hr followed by training trial and subsequent addition of scopolamine at 30 mins post trial measured for 24 hrs interval. It counts as functional.
Series [23] has as its system Mus musculus. As to the kind of experiment: Antialzheimer activity in scopolamine induced Kunming mouse cognitive deficit model assessed as latency time at 5.2 mg/kg, po treated for 1 hr followed by training trial and subsequent addition of scopolamine at 30 mins post trial measured for 24 hrs interval. It counts as functional.
The target of series [24] is T1, Acetylcholinesterase. Put plainly: Mixed type inhibition of human erythrocyte AChE at 12.5 to 50 nM using acetylthiocholine iodide as substrate preincubated for 6 mins followed by substrate addition measured up to 180 secs by Lineweaver-Burk plot analysis.
The nature of series [25]: Metal chelating activity assessed as compound-Cu2+ complex formation at 25 uM by UV-Vis spectrophotometry.
The nature of series [26]: Metal chelating activity assessed as compound-Fe2+ complex formation at 25 uM by UV-Vis spectrophotometry.
The nature of series [27]: Metal chelating activity assessed as compound-Zn2+ complex formation at 25 uM by UV-Vis spectrophotometry.
Another series can be described thus: in vitro. The following applies: PAMPA. (PAMPA measures passive passage across an artificial lipid membrane.)

T1 sequence (P22303 whole entry): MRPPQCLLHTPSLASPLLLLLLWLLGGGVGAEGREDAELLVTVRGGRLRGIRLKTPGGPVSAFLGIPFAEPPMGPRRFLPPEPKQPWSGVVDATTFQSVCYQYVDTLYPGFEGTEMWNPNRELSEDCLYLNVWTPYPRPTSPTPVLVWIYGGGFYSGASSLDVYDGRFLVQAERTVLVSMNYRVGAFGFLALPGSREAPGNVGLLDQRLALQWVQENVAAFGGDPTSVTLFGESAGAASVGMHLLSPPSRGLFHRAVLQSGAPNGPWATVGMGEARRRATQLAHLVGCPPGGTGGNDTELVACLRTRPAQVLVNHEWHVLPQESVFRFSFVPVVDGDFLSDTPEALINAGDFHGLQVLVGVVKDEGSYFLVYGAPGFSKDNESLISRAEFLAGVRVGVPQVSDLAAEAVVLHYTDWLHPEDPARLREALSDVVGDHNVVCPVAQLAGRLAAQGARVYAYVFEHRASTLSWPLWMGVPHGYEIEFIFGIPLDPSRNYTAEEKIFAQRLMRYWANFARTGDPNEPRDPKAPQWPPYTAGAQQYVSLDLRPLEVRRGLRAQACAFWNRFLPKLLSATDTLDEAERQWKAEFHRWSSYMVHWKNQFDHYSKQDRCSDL
Description for in vitro: Effective permeability at 25 ug/ml after 16 hrs by PAMPA

On Acetylcholinesterase [1], `Cc1cc(=O)oc2cc(OCCSC(=S)N3CCOCC3)ccc12` gave an inhibition of 11%. In addition, the inhibition at 0.05 h, 10 µM in [2] was < 5%.

For the compound `Cc1cc(=O)oc2cc(OCCCCSC(=S)N3CCCCC3)ccc12`, inhibition against Acetylcholinesterase [3] was half-maximal at 27 nM (IC50). The inhibition at 0.05 h, 10 µM in [2] was 15.3%. Moreover, at Acetylcholinesterase [4], the Ratio IC50 is 1.5. The compound further returned an inhibition constant (Ki) on Acetylcholinesterase [5] of 37.1 nM. In addition, the result in series [6] was Active. Further, in series [7], the Ka amounted to 1.69 ×10³ /M. Further, in series [8], the viability at 24 h, 12.5 µM is 99.2%. For the same compound, in series [9], the viability at 24 h, 25 µM is 101%. In series [10], the viability at 24 h, 50 µM amounted to 90.1%. The viability at 24 h, 100 µM in series [11] amounted to 80.3%. The Activity entry in the series on Mus musculus [12], in the series with Mus musculus [13], in the series on Mus musculus [14], in the series on Mus musculus [15], in the series with Mus musculus [16] and in the series on Mus musculus [17] was “Non-Toxic” throughout. In addition, the figures for the Activity entry in the series on Mus musculus [18], with Mus musculus [19] and with Mus musculus [20] were “Non-Toxic”, “Dose-dependent effect” and “Dose-dependent effect”, respectively. The Time in the series on Mus musculus [21] is recorded as 192 s; in the series with Mus musculus [22], 182 s; with Mus musculus [23] it was 151 s. In addition, the inhibition result on Acetylcholinesterase [24] is “Active”. For the same compound, the outcome in series [25], in series [26] and in series [27] was inactive. In the series “in vitro”, the Papp at 16 h, 25 ug/ml came out at 9.21 ×10⁻⁶ cm/s.

On Acetylcholinesterase [3], `Cc1cc(=O)oc2cc(OCCSC(=S)N3CCC(N4CCCCC4)CC3)ccc12` had a concentration for half-maximal inhibition (IC50) of 1160 nM. Further, in series [2], the inhibition at 0.05 h, 10 µM turned out to be 24.3%.

Turning to `Cc1cc(=O)oc2cc(OCCSC(=S)N3CCN(C4CC4)CC3)ccc12`, the inhibition against Acetylcholinesterase [1] stood at 18.7%. In addition, the inhibition at 0.05 h, 10 µM in series [2] was < 5%.

As for `Cc1cc(=O)oc2cc(OCCSC(=S)N3CCN(C(C)C)CC3)ccc12`, the IC50 at Acetylcholinesterase [3] turned out to be 1990 nM. The inhibition at 0.05 h, 10 µM in [2] was found to be 28.1%.

On Acetylcholinesterase [3], `Cc1cc(=O)oc2cc(OCCSC(=S)N3CCCC3)ccc12` had an IC50 of 890 nM. Besides, in [2], the inhibition at 0.05 h, 10 µM is < 5%.

`Cc1cc(=O)oc2cc(OCCSC(=S)N3CCN(C)CC3)ccc12` had an inhibition on Acetylcholinesterase [1] of 36.8%. For the same compound, the inhibition at 0.05 h, 10 µM in series [2] is < 5%.

As for `Cc1cc(=O)oc2cc(OCCSC(=S)N(C)C)ccc12`, half-maximal inhibition against Acetylcholinesterase [3] (IC50) required 10600 nM. In [2], the inhibition at 0.05 h, 10 µM was < 5%.

As for `Cc1cc(=O)oc2cc(OCCSC(=S)N3CCN(c4ncccn4)CC3)ccc12`, the inhibition at Acetylcholinesterase [1] turned out to be 12.3%. Also, the inhibition at 0.05 h, 10 µM in [2] is < 5%.

As to `Cc1cc(=O)oc2cc(OCCCCCCCCSC(=S)N3CCCCC3)ccc12`, on Acetylcholinesterase [1], the inhibition is < 5%. Further, the inhibition at 0.05 h, 10 µM in series [2] was < 5%.

Compound `Cc1cc(=O)oc2cc(OCCCCCCSC(=S)N3CCCCC3)ccc12` gave a half-inhibitory concentration (IC50) on Acetylcholinesterase [3] of 610 nM. Moreover, the inhibition at 0.05 h, 10 µM in series [2] worked out at 6.21%.

In the case of `Cc1cc(=O)oc2cc(OCCCSC(=S)N3CCCCC3)ccc12`, the IC50 at Acetylcholinesterase [3] came to 290 nM. In series [2], this compound registered an inhibition at 0.05 h, 10 µM of 31.2%.

`Cc1cc(=O)oc2cc(OCCSC(=S)N(CCO)CCO)ccc12` gave an inhibition on Acetylcholinesterase [1] of 34.5%. In addition, the inhibition at 0.05 h, 10 µM in [2] was < 5%.

`Cc1cc(=O)oc2cc(OCCSC(=S)N3CCC(O)CC3)ccc12`: the inhibition on Acetylcholinesterase [1] was < 5%. Further, the inhibition at 0.05 h, 10 µM in series [2] was < 5%.

At Acetylcholinesterase [3], `Cc1cc(=O)oc2cc(OCCCCCSC(=S)N3CCCCC3)ccc12` yielded a 50% inhibitory concentration (IC50) of 210 nM. The inhibition at 0.05 h, 10 µM in series [2] was found to be 10.1%.

Consider `CCN(CC)C(=S)SCCOc1ccc2c(C)cc(=O)oc2c1`, for which, on Acetylcholinesterase [3], the half-maximal inhibitory concentration (IC50) was determined as 1940 nM. In series [2], the inhibition at 0.05 h, 10 µM amounted to 10.9%.

Compound `Cc1cc(=O)oc2cc(OCCSC(=S)N3CCCCC3)ccc12` registered an IC50 against Acetylcholinesterase [3] of 470 nM. The inhibition at 0.05 h, 10 µM in [2] was found to be 37.2%.
